Read-outs that look alike come from different tables or passages of the source.
Tests used:
[1] = target: T1, human ACC1 (acetyl-coenzyme A carboxylase alpha transcript variant 1) (Homo sapiens, UniProt Q13085); assay: Human ACC1 enzyme assay, Assay B1 (ADP-Glo); format: biochemical
T1 construct: FLAG (C); made in house; host or cells: baculovirus-infected insect cells (Hi5)

MCF7 = assay: Cell proliferation assay (CellTiter-Glo, 96 h), MCF7; format: cell-based; conditions: Homo sapiens
Outline: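 Cells seeded 2000-5000/well, treated next day and incubated 96 h at 37° C; viability by CellTiter-Glo luminescence. t=0 luminescence subtracted from 96 h values for treated and untreated wells; percent growth inhibition derived relative to controls.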

[2] = target: human ACC2 (acetyl-coenzyme A carboxylase 2) (Homo sapiens, UniProt O00763); assay: Human ACC2 enzyme assay, Assay B2 (ADP-Glo);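 note: human ACC2 activity read as ADP product, detected by luciferase glow luminescence after residual ATP removal, enzyme near 2 ng/µl in linear range, detection steps at 22 °C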
recombinant human ACC1 = recombinant human ACC1 (Homo sapiens, UniProt Q13085); assay: Human ACC1 enzyme assay, Assay A1 (HTRF ADP immunoassay);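 note: ADP generated by the enzyme quantified via competitive time-resolved FRET, read as europium cryptate to d2 energy transfer after 1 h at 22 °C with labelled ADP tracer and anti-ADP antibody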
[3] = target: acetyl-CoA carboxylase 2 (ACC2) (Homo sapiens, UniProt O00763); assay: Human ACC2 enzyme assay, Assay A2 (HTRF ADP immunoassay);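 note: ADP generated by ACC2 quantified via competitive time-resolved FRET between europium cryptate anti-ADP antibody and d2-tagged ADP, enzyme kept in linear range near 0.6 ng/µl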
Experimental: The inhibitory activity of the substances of this invention with regard to acetyl-CoA carboxylase 2 (ACC2) was measured using the ACC2 assay described in the paragraphs below. The basic principle of the assay is the measurement of adenosine diphosphate (ADP), which is formed as a by-product, by means of an HTRF®-based competitive immunoassay (HTRF=Homogeneous Time Resolved Fluorescence).
The amount of complex of d2-labelled ADP and europium cryptate-labelled anti-ADP antibody was then determined by measuring the resonance energy transfer of europium cryptate to d2.

[4] = MCF7, Table 7, 96-hour incubation
[5] = Assay B1, read-out: ACC 1 (=B1) IC50

Sequence of human ACC2 (acetyl-coenzyme A carboxylase 2) (O00763 27-2458 limits assumed): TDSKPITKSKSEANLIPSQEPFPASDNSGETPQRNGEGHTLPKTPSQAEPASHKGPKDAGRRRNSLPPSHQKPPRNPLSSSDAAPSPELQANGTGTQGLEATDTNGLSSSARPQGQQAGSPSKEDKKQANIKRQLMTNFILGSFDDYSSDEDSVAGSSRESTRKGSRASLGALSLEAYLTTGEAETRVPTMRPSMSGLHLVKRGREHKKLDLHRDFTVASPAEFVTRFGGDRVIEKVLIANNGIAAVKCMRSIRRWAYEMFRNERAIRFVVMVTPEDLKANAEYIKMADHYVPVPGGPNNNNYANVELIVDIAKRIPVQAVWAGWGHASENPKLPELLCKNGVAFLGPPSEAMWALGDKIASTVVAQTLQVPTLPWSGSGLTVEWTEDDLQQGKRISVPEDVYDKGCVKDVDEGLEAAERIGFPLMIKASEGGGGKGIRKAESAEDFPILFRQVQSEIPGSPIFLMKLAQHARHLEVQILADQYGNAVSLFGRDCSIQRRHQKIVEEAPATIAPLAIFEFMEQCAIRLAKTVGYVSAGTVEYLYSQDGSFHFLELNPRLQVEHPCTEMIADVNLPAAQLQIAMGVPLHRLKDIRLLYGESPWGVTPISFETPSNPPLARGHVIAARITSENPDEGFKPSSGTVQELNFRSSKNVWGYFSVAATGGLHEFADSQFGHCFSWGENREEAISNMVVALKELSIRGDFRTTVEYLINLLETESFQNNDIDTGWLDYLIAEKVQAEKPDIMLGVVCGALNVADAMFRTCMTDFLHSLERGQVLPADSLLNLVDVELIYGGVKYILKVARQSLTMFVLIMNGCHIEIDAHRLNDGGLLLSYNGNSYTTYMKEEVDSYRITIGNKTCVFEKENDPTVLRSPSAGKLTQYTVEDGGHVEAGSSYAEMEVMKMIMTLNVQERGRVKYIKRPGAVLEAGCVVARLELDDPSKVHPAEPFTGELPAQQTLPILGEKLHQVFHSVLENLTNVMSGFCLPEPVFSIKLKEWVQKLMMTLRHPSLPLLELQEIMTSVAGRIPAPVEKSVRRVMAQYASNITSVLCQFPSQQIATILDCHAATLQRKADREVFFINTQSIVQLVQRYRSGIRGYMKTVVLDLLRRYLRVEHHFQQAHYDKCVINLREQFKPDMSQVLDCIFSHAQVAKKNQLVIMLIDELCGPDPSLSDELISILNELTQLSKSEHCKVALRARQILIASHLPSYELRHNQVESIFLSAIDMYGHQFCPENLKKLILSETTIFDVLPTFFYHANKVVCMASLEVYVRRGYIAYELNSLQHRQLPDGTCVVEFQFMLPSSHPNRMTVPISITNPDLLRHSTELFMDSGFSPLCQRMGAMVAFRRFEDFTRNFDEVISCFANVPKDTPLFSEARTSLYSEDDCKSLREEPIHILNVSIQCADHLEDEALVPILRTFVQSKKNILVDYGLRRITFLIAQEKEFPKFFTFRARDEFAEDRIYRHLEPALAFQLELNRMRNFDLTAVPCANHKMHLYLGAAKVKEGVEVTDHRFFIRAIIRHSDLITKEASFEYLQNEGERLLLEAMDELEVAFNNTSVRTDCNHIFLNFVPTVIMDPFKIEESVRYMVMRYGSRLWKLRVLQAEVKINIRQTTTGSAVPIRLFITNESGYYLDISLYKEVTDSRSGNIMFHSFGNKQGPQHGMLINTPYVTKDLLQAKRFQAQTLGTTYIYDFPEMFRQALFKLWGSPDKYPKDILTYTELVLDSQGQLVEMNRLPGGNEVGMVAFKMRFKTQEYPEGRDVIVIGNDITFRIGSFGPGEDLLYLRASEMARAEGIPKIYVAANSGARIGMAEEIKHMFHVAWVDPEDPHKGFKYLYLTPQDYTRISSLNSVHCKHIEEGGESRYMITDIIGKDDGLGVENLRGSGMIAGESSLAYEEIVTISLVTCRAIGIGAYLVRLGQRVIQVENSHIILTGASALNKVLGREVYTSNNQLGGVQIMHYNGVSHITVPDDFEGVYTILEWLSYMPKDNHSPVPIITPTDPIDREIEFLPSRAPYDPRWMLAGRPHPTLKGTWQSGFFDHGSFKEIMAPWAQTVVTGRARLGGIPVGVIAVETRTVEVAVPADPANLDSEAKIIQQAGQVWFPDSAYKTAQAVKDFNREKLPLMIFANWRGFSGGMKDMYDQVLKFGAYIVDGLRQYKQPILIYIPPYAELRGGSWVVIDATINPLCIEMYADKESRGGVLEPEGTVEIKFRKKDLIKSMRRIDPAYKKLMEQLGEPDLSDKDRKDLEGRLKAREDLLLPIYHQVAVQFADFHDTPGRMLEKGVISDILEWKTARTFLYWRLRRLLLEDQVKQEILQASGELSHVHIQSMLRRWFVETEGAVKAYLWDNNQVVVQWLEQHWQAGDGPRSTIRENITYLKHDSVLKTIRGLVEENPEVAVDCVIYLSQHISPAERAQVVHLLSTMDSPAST
Sequence of acetyl-CoA carboxylase 2 (ACC2) (O00763 39-2458 limits assumed): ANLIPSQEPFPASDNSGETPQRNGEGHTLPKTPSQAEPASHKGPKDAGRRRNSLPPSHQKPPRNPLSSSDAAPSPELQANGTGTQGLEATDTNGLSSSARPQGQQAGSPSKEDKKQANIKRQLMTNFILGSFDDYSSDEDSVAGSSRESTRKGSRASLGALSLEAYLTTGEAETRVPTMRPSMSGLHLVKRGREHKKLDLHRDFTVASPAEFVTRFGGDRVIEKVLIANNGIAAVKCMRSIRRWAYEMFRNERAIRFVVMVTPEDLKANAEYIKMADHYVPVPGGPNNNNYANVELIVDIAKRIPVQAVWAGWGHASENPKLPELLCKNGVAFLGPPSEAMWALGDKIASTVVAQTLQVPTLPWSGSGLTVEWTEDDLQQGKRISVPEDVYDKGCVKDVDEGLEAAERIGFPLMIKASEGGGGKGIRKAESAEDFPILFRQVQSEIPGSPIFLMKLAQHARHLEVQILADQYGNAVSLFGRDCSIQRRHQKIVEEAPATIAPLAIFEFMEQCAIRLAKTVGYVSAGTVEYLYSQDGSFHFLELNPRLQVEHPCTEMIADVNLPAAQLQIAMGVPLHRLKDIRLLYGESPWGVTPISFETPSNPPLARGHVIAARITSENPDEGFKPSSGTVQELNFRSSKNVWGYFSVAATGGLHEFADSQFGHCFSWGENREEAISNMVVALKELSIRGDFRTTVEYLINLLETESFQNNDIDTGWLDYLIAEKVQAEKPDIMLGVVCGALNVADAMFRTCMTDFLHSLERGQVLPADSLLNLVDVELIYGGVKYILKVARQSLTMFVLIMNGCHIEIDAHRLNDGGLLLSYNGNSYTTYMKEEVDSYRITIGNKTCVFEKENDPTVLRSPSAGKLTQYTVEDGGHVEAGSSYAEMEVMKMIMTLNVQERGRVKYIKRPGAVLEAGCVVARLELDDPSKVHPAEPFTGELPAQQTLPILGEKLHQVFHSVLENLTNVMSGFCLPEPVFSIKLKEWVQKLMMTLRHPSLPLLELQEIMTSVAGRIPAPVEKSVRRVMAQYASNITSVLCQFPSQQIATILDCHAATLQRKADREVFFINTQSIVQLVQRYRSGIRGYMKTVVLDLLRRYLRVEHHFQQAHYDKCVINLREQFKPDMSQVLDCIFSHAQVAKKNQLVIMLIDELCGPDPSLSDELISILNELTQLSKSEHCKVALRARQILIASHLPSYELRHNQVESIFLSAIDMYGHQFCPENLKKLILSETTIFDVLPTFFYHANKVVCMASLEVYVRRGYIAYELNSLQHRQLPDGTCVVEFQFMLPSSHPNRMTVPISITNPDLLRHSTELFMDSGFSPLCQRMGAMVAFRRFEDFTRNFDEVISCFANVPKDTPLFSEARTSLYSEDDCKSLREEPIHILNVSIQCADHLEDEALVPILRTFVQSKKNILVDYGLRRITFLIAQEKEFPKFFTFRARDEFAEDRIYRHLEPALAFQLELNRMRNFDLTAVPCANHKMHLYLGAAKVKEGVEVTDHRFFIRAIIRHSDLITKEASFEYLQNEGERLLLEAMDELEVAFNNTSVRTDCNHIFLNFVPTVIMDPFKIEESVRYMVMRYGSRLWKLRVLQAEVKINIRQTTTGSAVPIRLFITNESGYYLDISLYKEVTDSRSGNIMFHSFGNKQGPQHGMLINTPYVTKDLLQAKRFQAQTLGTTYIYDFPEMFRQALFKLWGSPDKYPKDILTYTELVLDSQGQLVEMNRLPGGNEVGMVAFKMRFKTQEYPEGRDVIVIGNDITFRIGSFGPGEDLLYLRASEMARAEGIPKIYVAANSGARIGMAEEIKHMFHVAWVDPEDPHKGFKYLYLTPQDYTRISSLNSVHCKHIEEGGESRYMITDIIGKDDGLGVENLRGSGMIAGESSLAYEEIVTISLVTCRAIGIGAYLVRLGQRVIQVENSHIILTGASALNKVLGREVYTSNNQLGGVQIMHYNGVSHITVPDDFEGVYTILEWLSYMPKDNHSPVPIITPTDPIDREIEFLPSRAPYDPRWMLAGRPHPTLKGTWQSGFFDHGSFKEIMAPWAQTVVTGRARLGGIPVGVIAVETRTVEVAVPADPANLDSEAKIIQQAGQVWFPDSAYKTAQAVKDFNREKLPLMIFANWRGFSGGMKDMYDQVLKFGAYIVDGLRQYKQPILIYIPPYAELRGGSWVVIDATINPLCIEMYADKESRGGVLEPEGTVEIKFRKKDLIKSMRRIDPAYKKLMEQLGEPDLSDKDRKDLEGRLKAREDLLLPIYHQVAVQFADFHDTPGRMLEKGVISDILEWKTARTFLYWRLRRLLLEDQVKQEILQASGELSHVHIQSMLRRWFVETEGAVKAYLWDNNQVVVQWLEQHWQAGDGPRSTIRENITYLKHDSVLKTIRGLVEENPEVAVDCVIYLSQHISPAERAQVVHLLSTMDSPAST

| Compound | IC50 [1] | IC50 (MCF7; [4]) | IC50 [2] | IC50 (recombinant human ACC1) | IC50 [3] | IC50 [1, 5] | IC50 ([1]; Assay B1, ADP-Glo, read-out: ACC 1 (=B1) IC50) | IC50 (MCF7; MCF7 cells) |
| --- | --- | --- | --- | --- | --- | --- | --- | --- |
| Cc1cc(F)c(-c2ccc(Cl)cc2)cc1C1=C(O)C2(CCC(C(F)(F)F)CC2)NC1=O (mixture of isomers) [1-100, 3-(4′-Chloro-6-fluoro-4-methylbiphenyl-3-yl)-4-hydroxy-8-(trifluoromethyl)-1-azaspiro[4.5]dec-3-en-2-one] | 96 nM | 127 nM | 2470 nM | 91 nM | 988 nM | – | – | – |
| Cc1ccc(-c2ccc(Cl)cc2)c(C)c1C1=C(O)[C@]2(CC[C@H](C(F)(F)F)CC2)NC1=O [1-95, (5s,8s)-3-(4′-Chloro-2,4-dimethylbiphenyl-3-yl)-4-hydroxy-8-(trifluoromethyl)-1-azaspiro[4.5]dec-3-en-2-one] | – | 88 nM | 2410 nM | 378 nM | 393 nM | 383 nM | – | – |
| Cc1ccc(-c2ccc(F)c(F)c2)cc1C1=C(O)[C@]2(CC[C@@H](C(F)(F)F)CC2)NC1=O [1-129, (5r,8r)-3-(3′,4′-Difluoro-4-methylbiphenyl-3-yl)-4-hydroxy-8-(trifluoromethyl)-1-azaspiro[4.5]dec-3-en-2-one] | – | 172 nM | 10600 nM | 349 nM | 9610 nM | 267 nM | – | – |
| Cc1c(F)cc(-c2ccc(Cl)c(F)c2)cc1C1=C(O)[C@]2(CC[C@H](C(F)(F)F)CC2)NC1=O [1-102, (5s,8s)-3-(4′-Chloro-3′,5-difluoro-4-methylbiphenyl-3-yl)-4-hydroxy-8-(trifluoromethyl)-1-azaspiro[4.5]dec-3-en-2-one] | 243 nM | 79 nM | 3820 nM | 214 nM | 2950 nM | – | – | – |
| Cc1ccc(-c2ccc(Cl)cc2)c(C)c1C1=C(O)[C@]2(CC[C@](O)(C(F)(F)F)CC2)NC1=O [1-125, (5r,8r)-3-(4′-Chloro-2,4-dimethylbiphenyl-3-yl)-4,8-dihydroxy-8-(trifluoromethyl)-1-azaspiro[4.5]dec-3-en-2-one] | – | 322 nM | 6770 nM | 281 nM | 3990 nM | 217 nM | – | – |
| CC1(C)CCC2(CC1)NC(=O)C(c1cc(-c3ccc(Cl)cc3)ccc1Cl)=C2O [1-138, 3-(4,4′-Dichlorobiphenyl-3-yl)-4-hydroxy-8,8-dimethyl-1-azaspiro[4.5]dec-3-en-2-one] | 172 nM | 54 nM | 2190 nM | 262 nM | 633 nM | – | – | – |
| CC1CCC2(CC1)NC(=O)C(c1cc(-c3ccc(Cl)cc3)ccc1Cl)=C2O (centres unmarked) [1-139, 3-(4,4′-Dichlorobiphenyl-3-yl)-4-hydroxy-8-methyl-1-azaspiro[4.5]dec-3-en-2-one] | 153 nM | 70 nM | 4550 nM | 280 nM | 605 nM | – | – | – |
| CO[C@H]1CC[C@]2(CC1)NC(=O)C(c1cc(-c3ccc(Cl)cc3Cl)ccc1C)=C2O [1-143, (5s,8s)-3-(2′,4′-Dichloro-4-methylbiphenyl-3-yl)-4-hydroxy-8-methoxy-1-azaspiro[4.5]dec-3-en-2-one] | 161 nM | 111 nM | 2150 nM | 282 nM | 1020 nM | – | – | – |
| COC[C@H]1CC[C@]2(CC1)NC(=O)C(c1cc(-c3ccc(Cl)c(F)c3)ccc1C)=C2O [1-111, (5s,8s)-3-(4′-Chloro-3′-fluoro-4-methylbiphenyl-3-yl)-4-hydroxy-8-(methoxymethyl)-1-azaspiro[4.5]dec-3-en-2-one] | – | 194 nM | 1120 nM | 177 nM | 592 nM | 126 nM | – | – |
| Cc1ccc(-c2ccc(Cl)c(F)c2)c(C)c1C1=C(O)[C@]2(CC[C@H](C(F)(F)F)CC2)NC1=O [1-93, (5s,8s)-3-(4′-Chloro-3′-fluoro-2,4-dimethylbiphenyl-3-yl)-4-hydroxy-8-(trifluoromethyl)-1-azaspiro[4.5]dec-3-en-2-one] | 217 nM | 78 nM | 4010 nM | 301 nM | 876 nM | – | – | – |
| Cc1ccc(-c2ccc(Cl)cc2)cc1C1=C(O)[C@@]2(CCC[C@H](C(F)(F)F)C2)NC1=O [1-133, (5S,7S)-3 (4′-Chloro-4 methylbiphenyl-3-yl)-4-hydroxy-7-(trifluoromethyl)-1-azaspiro[4.5]dec-3-en-2-one] | – | 75 nM | 8100 nM | 329 nM | 2870 nM | 142 nM | – | – |
| Cc1cc(C)c(-c2ccc(Cl)cc2)cc1C1=C(O)C2(CCC(C(F)(F)F)CC2)NC1=O (centres unmarked) [1-97, 3-(4′-Chloro-4,6-dimethylbiphenyl-3-yl)-4-hydroxy-8 (trifluoromethyl)-1-azaspiro[4.5]dec-3-en-2-one] | 1110 nM | 155 nM | 269 nM | 1940 nM | 138 nM | – | – | – |
| CO[C@H]1CC[C@]2(CC1)NC(=O)C(c1cc(-c3ccc(Cl)c(F)c3)c(Cl)cc1C)=C2O [1-108, (5s,8s)-3-(4′,6-Dichloro-3′-fluoro-4-methylbiphenyl-3-yl)-4-hydroxy-8-methoxy-1-azaspiro[4.5]dec-3-en-2-one] | 204 nM | 76 nM | 753 nM | 460 nM | 346 nM | – | – | – |
| O=C1N[C@]2(CC[C@@H](C(F)(F)F)CC2)C(O)=C1c1cc(-c2ccc(Cl)cc2)ccc1Cl [1-134, (5s,8s)-3-(4,4′-Dichlorobiphenyl-3-yl)-4-hydroxy-8 (trifluoromethyl)-1-azaspiro[4.5]dec-3-en-2-one] | – | 114 nM | 2850 nM | 299 nM | 1310 nM | 109 nM | – | – |
| Cc1ccc(-c2ccc(Cl)c(F)c2)cc1C1=C(O)[C@]2(CC[C@](O)(C(F)(F)C(F)(F)F)CC2)NC1=O [1-130, (5r,8r)-3-(4′-Chloro-3′-fluoro-4-methylbiphenyl-3-yl)-4,8-dihydroxy-8-(pentafluoroethyl)-1-azaspiro[4.5]dec-3-en-2-one] | – | 61 nM | 5890 nM | 133 nM | 4400 nM | 108 nM | – | – |
| CCO[C@H]1CC[C@]2(CC1)NC(=O)C(c1cc(-c3ccc(Cl)cc3)ccc1C)=C2O [1-146, (5s,8s)-3-(4′-Chloro-4 methylbiphenyl-3-yl)-8-ethoxy-4-hydroxy-1-azaspiro[4.5]dec-3-en-2-one] | – | 47 nM | 679 nM | 197 nM | 455 nM | 115 nM | – | – |
| CO[C@H]1CC[C@]2(CC1)NC(=O)C(c1cc(-c3ccc(Cl)c(F)c3)cc(F)c1C)=C2O [1-105, (5s,8s)-3-(4′-Chloro-3′,5-difluoro-4-methylbiphenyl-3-yl)-4-hydroxy-8-methoxy-1-azaspiro[4.5]dec-3-en-2-one] | 165 nM | 106 nM | 8940 nM | 360 nM | 5560 nM | – | – | – |
| Cc1cc(F)c(-c2ccc(Cl)cc2)cc1C1=C(O)[C@]2(CC[C@](O)(C(F)(F)C(F)(F)F)CC2)NC1=O [1-131, (5r,8r)-3-(4′-Chloro-6-fluoro-4-methylbiphenyl-3-yl)-4,8-dihydroxy-8-(pentafluoroethyl)-1-azaspiro[4.5]dec-3-en-2-one] | – | 60 nM | 5620 nM | 266 nM | 7620 nM | 98 nM | – | – |
| CO[C@H]1CC[C@]2(CC1)NC(=O)C(c1cc(-c3ccc(Cl)cc3)c(C)cc1C)=C2O [1-132, (5s,8s)-3-(4′-Chloro-4,6-dimethylbiphenyl-3-yl)-4-hydroxy-8-methoxy-1-azaspiro[4.5]dec-3-en-2-one] | 912 nM | 70 nM | 234 nM | 1710 nM | 106 nM | – | – | – |
| CCCOC1CCC2(CC1)OC(=O)C(c1cc(-c3ccc(Cl)cc3)c(C)cc1C)=C2O (centres unmarked) [2-47, 3-(4′-chloro-4,6-dimethylbiphenyl-3-yl)-4-hydroxy-8-propoxy-1-oxaspiro[4.5]dec-3-en-2-one] | – | – | 389 nM | 592 nM | 453 nM | – | 402 nM | 302 nM |
| CO[C@H]1CC[C@]2(CC1)NC(=O)C(c1cc(-c3ccc(Cl)cc3)c(F)cc1C)=C2O [1-135, (5s,8s)-3-(4′-Chloro 6 fluoro 4-methylbiphenyl-3-yl)-4-hydroxy-8-methoxy-1-azaspiro[4.5]dec-3-en-2-one] | 94 nM | 171 nM | 1750 nM | 220 nM | 657 nM | – | – | – |
| Cc1ccc(-c2ccc(F)c(F)c2)c(C)c1C1=C(O)[C@]2(CC[C@H](C(F)(F)F)CC2)NC1=O [1-101, (5s,8s)-3-(3′,4′-Difluoro-2,4-dimethylbiphenyl-3-yl)-4-hydroxy-8-(trifluoromethyl)-1-azaspiro[4.5]dec-3-en-2-one] | 650 nM | 272 nM | 10500 nM | 460 nM | 6070 nM | – | – | – |

From patent US20130040935A1, “CYCLIC KETO-ENOLS FOR THERAPY” (BAYER INTELLECTUAL PROPERTY GMBH, priority 2010, published 2013)
